System: Clone 12 cells (HGPRT-deficient HT1080 fibrosarcoma cells)
Experiment: Chemical synthetic lethality screen: retention of HGPRT-tpzGFP survival plasmid (tpzGFP/sphGFP fluorescence ratio) in microplates
Format: cell-based, human
Conditions: for detection of chemical synthetic lethality (survival plasmid retention) in blind large-scale test: Clone 12 in 1200 wells, medium lacking selection, chemicals added at random together with guanine (FIG. 9)
Protocol: For pIS, selection in G418 (Calbiochem) was carried out at 400 microg/ml, while maintenance was at 50 microg/ml. For the HGPRT-tpzGFP survival plasmid, selection in hygromycin B (Sigma) was at 150 microg/ml while maintenance was at 50 microg/ml. […] GATA medium was DMEM with 10% dialyzed FCS, plus 3.5 microM guanine-HCI, 0.4 microM aminopterin, 16 microM thymidine and 35 microM adenine.
For fluorescent scanning, cells were trypsinized and distributed at 30,000 cells/well into 96 well microplates (TPP). Growth medium was changed twice a week and plates were grown for up to 75 days. […] Plates were prepared for scanning by replacement of medium in wells with Hank's balanced salt solution without phenol red. […] Plates were scanned with an FL600 microplate fluorescence reader using the KC4 software (Biotek Instruments). Excitation for sphGFP was at 380 nin with a bandpass of 20 nm, while emission was measured at 508 nm with a bandpass of 40 nm.
Excitation of tpzGFP was at 495 nm with a bandpass of 20 mn, while emission was measured at 535 nm with a bandpass of 40 nm. To avoid possible artifacts, all wells within a given experiment were assayed for the fluorescence of the two GFP mutants using fixed sensitivities. Integrated sphGFP was used as an internal control for the number of cells. This was achieved by dividing the relative fluorescence resulting from the episomal tpzGFP vector by the relative fluorescence for sphGFP for each well. This ratio was then divided by the average fluorescence ratio for cells maintained under hygromycin B or HAT selection, resulting in a value representing percent remaining fluorescence for each well as compared to wells maintained under continuous selection. The data points are an average for all wells and the calculated standard deviation. Cells were returned to growth medium immediately following scanning.
Its loss or retention can be determined by measuring its normalized fluorescence in a microplate reader. It was then necessary to test whether these features would enable the tracing of a synthetic lethality condition. […] Under these conditions, normal HGPRT-positive cells can use supplied guanine to produce GMP via the salvage pathway, and survive, while HGPRT-deficient cells die.

Compound: N[C@@H](CN(O)N=O)C(=O)O [alanosine]
- detection of chemical synthetic lethality (survival plasmid retention) in blind large-scale test: not retained

Compound: COc1c(C)c2c(c(O)c1C/C=C(\C)CCC(=O)O)C(=O)OC2 [MPA, mycophenolic acid]
- retention of the survival plasmid over time (Clone 12 cells, GATA medium + 12.5 microgram/ml MPA, entire time period (FIG. 6)): retention of the survival plasmid for the entire time period
- retention of the survival plasmid (tpzGFP to sphGFP fluorescence ratio), dose response (Clone 12 cells, GATA medium + MPA at successively higher concentrations, read after two weeks (FIG. 5)): caused increasing retention of the survival plasmid
- detection of chemical synthetic lethality (survival plasmid retention) in blind large-scale test: clearly detected

Compound: NC(=O)c1ncn([C@@H]2O[C@H](CO)[C@@H](O)[C@H]2O)c1O [mizoribine]
- retention of the survival plasmid (Clone 12 cells, 96 well plates, serial dilutions of drug and of guanine, three weeks (FIGS. 7, 8)): caused retention of the survival plasmid
- detection of chemical synthetic lethality (survival plasmid retention) in blind large-scale test: clearly detected

Reference: patent US6861220B2, “Genetic screening methods” (Ramot University Authority for Applied Research & …, priority 1999, dated 2005)
